Measurements taken from ChEMBL document CHEMBL1687820, “Photolysis of hydrogen peroxide, an effective disinfection system via hydroxyl radical formation” (Antimicrob Agents Chemother, 2010).

Assays:
Type in all cases: functional, organism-based
[1] = system: Aggregatibacter actinomycetemcomitans; assay: Antibacterial activity against Aggregatibacter actinomycetemcomitans JCM 2434 assessed as concentration required to 4 log reduction of viable organism measured after 300 mW of laser irradiation
[2] = system: Streptococcus mutans; assay: Antibacterial activity against Streptococcus mutans JCM 5705 assessed as reduction of biofilm at 1 M followed by 300 mW of laser irradiation measured within 3 mins by scanning electron microscopy
[3] = system: Streptococcus mutans; assay: Antibacterial activity against Streptococcus mutans JCM 5705 assessed as reduction of viable organism at 1 M followed by 300 mW of laser irradiation measured within 3 mins
[4] = system: Aggregatibacter actinomycetemcomitans; assay: Antibacterial activity against Aggregatibacter actinomycetemcomitans JCM 2434 assessed as reduction of viable organism at 1 M followed by 300 mW of laser irradiation measured within 3 mins
[5] = system: Enterococcus faecalis; assay: Antibacterial activity against Enterococcus faecalis ATCC 29212 assessed as reduction of viable organism measured after 300 mW of laser irradiation
[6] = system: Streptococcus mutans; assay: Antibacterial activity against Streptococcus mutans JCM 5705 assessed as reduction of biofilm measured within 3 mins by scanning electron microscopy
[7] = system: Streptococcus mutans; assay: Antibacterial activity against Streptococcus mutans JCM 5705 assessed as concentration required to 4 log reduction of viable organism measured after 300 mW of laser irradiation
[8] = system: Streptococcus mutans; assay: Antibacterial activity against Streptococcus mutans JCM 5705 assessed as concentration required to 5 log reduction of biofilm measured after 300 mW of laser irradiation by scanning electron microscopy
[9] = system: Staphylococcus aureus; assay: Antibacterial activity against Staphylococcus aureus ATCC 25923 assessed as reduction of viable organism at 1 M followed by 300 mW of laser irradiation measured within 3 mins
[10] = system: Enterococcus faecalis; assay: Antibacterial activity against Enterococcus faecalis ATCC 29212 assessed as concentration required to 4 log reduction of viable organism measured after 300 mW of laser irradiation
[11] = system: Enterococcus faecalis; assay: Antibacterial activity against Enterococcus faecalis ATCC 29212 assessed as reduction of viable organism at 1 M followed by 300 mW of laser irradiation measured within 3 mins
[12] = system: Staphylococcus aureus; assay: Antibacterial activity against Staphylococcus aureus ATCC 25923 assessed as concentration required to 4 log reduction of viable organism measured after 300 mW of laser irradiation

In the case of `[OH]`, the Activity [1] is reported as 89 µM, the log10CFU/ml [2] is reported as over 5 and the log10CFU/ml [3] is reported as 4. The log10CFU/ml [4] was over 4, the Activity [5] was “Dose-dependent effect” and the log10CFU/ml [6] was 1. The Activity [7] was 173 µM, the Activity [8] was 258 µM and the log10CFU/ml [9] was over 4. For the same molecule, the Activity [10] was 258 µM, the log10CFU/ml [11] was over 4 and the Activity [12] was 173 µM.
